According to US6369069B1 (Aventis Pharma Deutschland GmbH, priority 1998, dated 2002):

System: Na^+-dependent Cl^−/HCO3^− exchanger (NCBE)
Experiment: Inhibition of the Na+-dependent Cl−/HCO3− exchanger (NCBE) in human endothelial cells (pHi recovery, BCECF fluorescence, FLIPR)
Assay type: cell-based
Experimental: Inhibition of the Na^+-dependent Cl^−/HCO3^− exchanger (NCBE) in human endothelial cells
Human endothelial cells (ECV-304) were detached form culture flasks with the aid of trypsin/EDTA buffer (0.05/0.02% in phosphate buffer) and, after centrifugation (100 g, 5 min), taken up in a buffered saline solution (mmol/l: 115 NaCl, 20 NH4Cl, 5 KCl, 1 CaCl2, 1 MgSO4, 20 N-(2-hydroxyethyl)-piperazine-N[…]-2-ethanesulfonic acid (HEPES), 5 glucose and 1 g/l of bovine serum albumin; pH 7.4). This cell suspension was incubated at 37 °C. for 20 min with 5 μM BCECF acetoxymethyl ester. The cells were then washed and resuspended in a sodium- and bicarbonate-free buffer solution (mmol/l: 5 HEPES, 133.8 choline chloride, 4.7 KCl, 1.25 MgCl2, 0.97 K2HPO4, 0.23 KH2PO4, 5 glucose; pH 7.4).
For the subsequent fluorescence measurement in the FLIPR (Fluorescent Imaging Plate Reader), 100 μl of this cell suspension in each case containing 20,000 cells were added by pipette per well of a 96-well microtiter plate and this microtiter plate was centrifuged (100 g, 5 min). In the FLIPR, 100 μl of buffer solution in each case were then removed from a further prepared microtiter plate and added by pipette to each of the 96 wells of the measuring plate. In this case, for a 100% control, i.e. a recovery of the intracellular pH (pHi) by means of the NCBE, a bicarbonate- and sodium-containing buffer solution (mmol/l: 5 HEPES, 93.8 NaCl, 40 NaHCO3, 4.7 KCl, 1.25 CaCl2, 1.25 MgCl2, 0.97 Na2HPO4, 0.23 NaH2PO4, 5 glucose; pH 7.4) which contained 50 μM HOE 642 was used. For a 0% control, i.e. no pHi recovery at all, a bicarbonate-free, sodium-containing buffer solution (mmol/l: 5 HEPES, 133.8 NaCl, 4.7 KCl, 1.25 CaCl2, 1.25 MgCl2, 0.97 Na2HPO4, 0.23 NaH2PO4, 5 glucose; pH 7.4) to which 50 μM HOE 642 were also added was employed. The compounds according to the invention were added in various concentrations of the sodium- and bicarbonate-containing solution. After addition of the buffer solutions to the dye-loaded acidified cells situated in the measuring plate, the increase in the fluorescence intensity which corresponded to an increase in the pHi was determined in each well of the microtiter plate.
The kinetics were in this case recorded at 35° C. over a period of 2 minutes. The increase in the fluorescence intensities for different concentrations of the compounds according to the invention was related to the two controls and from this the inhibitory action of the substances was determined.

[1] = compound at 10 μM, R(3) to R(7) hydrogen series
[2] = compound at 10 μM, sub-table with R7 substituent

## N#CNS(=O)(=O)c1ccccc1-c1ccc(CN(Cc2ccc3c(c2)OCO3)C(=O)Cc2ccccc2)cc1 [Example 127]
10 μM
  Residual activity % of the NCBE at 10 μM: 61.7%

## N#CNS(=O)(=O)c1ccccc1-c1ccc(CN(Cc2cccc3ccccc23)C(=O)Cc2ccc(O)cc2)cc1 [Example 284]
10 μM
  Residual activity % of the NCBE at 10 μM: 52.9%

## N#CNS(=O)(=O)c1ccccc1-c1ccc(CN(Cc2cccc3ccccc23)C(=O)Cc2ccco2)cc1 [Example 391]
[1]
  Residual activity % of the NCBE at 10 μM: 55.4%

## Cc1ccc(-c2ccc(CN(Cc3ccc4ccccc4c3)C(=O)Cc3cccs3)cc2)c(S(=O)(=O)NC#N)c1 [Example 515]
[2]
  Residual activity % of the NCBE at 10 μM: 68.9%

## N#CNS(=O)(=O)c1ccccc1-c1ccc(CN(Cc2ccccc2F)C(=O)Cc2cccs2)cc1 [Example 316]
10 μM
  Residual activity % of the NCBE at 10 μM: 14.4%

## N#CNS(=O)(=O)c1ccccc1-c1ccc(CN(Cc2ccc(Cl)cc2Cl)C(=O)CCc2cccs2)cc1 [Example 288]
10 μM
  Residual activity % of the NCBE at 10 μM: 63.1%

## N#CNS(=O)(=O)c1ccccc1-c1ccc(CN(Cc2ccc(Cl)c(Cl)c2)C(=O)Cc2ccccc2[N+](=O)[O-])cc1 [Example 261]
10 μM
  Residual activity % of the NCBE at 10 μM: 67.7%

## CC(C)(C)OC(=O)C(c1ccccc1)N(Cc1ccc(-c2ccccc2S(=O)(=O)NC#N)cc1)C(=O)Cc1cccs1 (stereo not shown) [Example 269]
10 μM
  Residual activity % of the NCBE at 10 μM: 94.4%

## Cc1ccccc1CN(Cc1ccc(-c2ccccc2S(=O)(=O)NC#N)cc1)C(=O)Cc1cccs1 [Example 312]
10 μM
  Residual activity % of the NCBE at 10 μM: 12.5%

## Cc1ccc(-c2ccc(CN(Cc3ccccc3)C(=O)C(C)c3cccs3)cc2)c(S(=O)(=O)NC#N)c1 (stereo not shown) [Example 521]
[2]
  Residual activity % of the NCBE at 10 μM: 88.2%

## N#CNS(=O)(=O)c1ccccc1-c1ccc(CN(CCOc2ccccc2)C(=O)Cc2cccs2)cc1 [Example 142]
10 μM
  Residual activity % of the NCBE at 10 μM: 27.1%

## N#CNS(=O)(=O)c1ccccc1-c1ccc(CN(C(=O)CC2CCCC2)C2CCCc3ccccc32)cc1 (stereo not shown) [Example 365]
10 μM
  Residual activity % of the NCBE at 10 μM: 45.1%

## Cc1cccc(CN(Cc2ccc(-c3ccccc3S(=O)(=O)NC#N)cc2)C(=O)CC2CCCCC2)c1 [Example 351]
10 μM
  Residual activity % of the NCBE at 10 μM: 27.2%

## N#CNS(=O)(=O)c1ccccc1-c1ccc(CN(Cc2ccc3ccccc3c2)C(=O)Cc2cccs2)cc1 [Example 310]
10 μM
  Residual activity % of the NCBE at 10 μM: 47.7%

## COCCC(=O)N(Cc1ccc(-c2ccccc2S(=O)(=O)NC#N)cc1)C1CCc2ccccc21 (stereo not shown) [Example 324]
10 μM
  Residual activity % of the NCBE at 10 μM: 60.5%

## C[C@H](c1ccccc1)N(Cc1ccc(-c2ccccc2S(=O)(=O)NC#N)cc1)C(=O)c1ccccc1F [Example 98]
10 μM
  Residual activity % of the NCBE at 10 μM: 98.0%

## CCN(Cc1ccc(-c2ccccc2S(=O)(=O)NC#N)cc1)C(=O)Cc1cccs1 [Example 240]
10 μM
  Residual activity % of the NCBE at 10 μM: 58.0%

## N#CNS(=O)(=O)c1ccccc1-c1ccc(CN(C(=O)Cc2cccs2)C2CCc3ccccc32)cc1 (stereo not shown) [Example 314]
10 μM
  Residual activity % of the NCBE at 10 μM: 14.4%

## N#CNS(=O)(=O)c1ccccc1-c1ccc(CN(CC2CCCCC2)C(=O)C(NC(=O)OCc2ccccc2)c2ccccc2)cc1 (stereo not shown) [Example 265]
10 μM
  Residual activity % of the NCBE at 10 μM: 68.9%

## C#CCN(Cc1ccc(-c2ccccc2S(=O)(=O)NC#N)cc1)C(=O)C(=O)c1ccco1 [Example 248]
10 μM
  Residual activity % of the NCBE at 10 μM: 66.6%

## Cc1ccccc1CN(Cc1ccc(-c2ccccc2S(=O)(=O)NC#N)cc1)C(=O)CC1CCCCC1 [Example 352]
10 μM
  Residual activity % of the NCBE at 10 μM: 35.2%

## N#CNS(=O)(=O)c1ccccc1-c1ccc(CN(Cc2ccccc2Cl)C(=O)C(C(=O)Cc2ccccc2)c2ccccc2)cc1 (stereo not shown) [Example 131]
10 μM
  Residual activity % of the NCBE at 10 μM: 97.6%

## N#CNS(=O)(=O)c1ccccc1-c1ccc(CN(C(=O)Cc2ccsc2)C2CC2)cc1 [Example 229]
10 μM
  Residual activity % of the NCBE at 10 μM: 86.7%

## Cc1ccc(-c2ccc(CN(Cc3ccccc3)C(=O)Cc3ccsc3)cc2)c(S(=O)(=O)NC#N)c1 [Example 537]
[2]
  Residual activity % of the NCBE at 10 μM: 54.4%

## Cc1ccc(-c2ccc(CN(Cc3ccccc3)C(=O)Cc3ccc(Cl)cc3)cc2)c(S(=O)(=O)NC#N)c1 [Example 529]
[2]
  Residual activity % of the NCBE at 10 μM: 89.4%

## CC(C)(C)CC(=O)N(Cc1ccc(-c2ccccc2S(=O)(=O)NC#N)cc1)Cc1ccco1 [Example 158]
10 μM
  Residual activity % of the NCBE at 10 μM: 57.9%

## N#CNS(=O)(=O)c1ccccc1-c1ccc(CN(Cc2ccccc2Cl)C(=O)COc2ccccc2)cc1 [Example 167]
10 μM
  Residual activity % of the NCBE at 10 μM: 47.5%

## Cc1cccc(CN(Cc2ccc(-c3ccccc3S(=O)(=O)NC#N)cc2)C(=O)CCOc2ccccc2)c1 [Example 341]
10 μM
  Residual activity % of the NCBE at 10 μM: 44.6%

## C=CCOC(=O)N(Cc1ccc(Cl)cc1)Cc1ccc(-c2ccccc2S(=O)(=O)NC#N)cc1 [Example 46]
10 μM
  Residual activity % of the NCBE at 10 μM: 52.2%

## C#CCN(Cc1ccc(-c2ccccc2S(=O)(=O)NC#N)cc1)C(=O)C(NC(=O)OCc1ccccc1)c1ccccc1 (stereo not shown) [Example 246]
10 μM
  Residual activity % of the NCBE at 10 μM: 65.0%

## N#CNS(=O)(=O)c1ccccc1-c1ccc(CN(CC2CC(C(=O)N3CCCC3)=NO2)C(=O)Cc2cccs2)cc1 (stereo not shown) [Example 396]
[1]
  Residual activity % of the NCBE at 10 μM: 53.2%

## C/C=C/C(=O)N(Cc1ccc(OC)cc1)Cc1ccc(-c2ccccc2S(=O)(=O)NC#N)cc1 [Example 64]
10 μM
  Residual activity % of the NCBE at 10 μM: 88.0%

## N#CNS(=O)(=O)c1ccccc1-c1ccc(CN(CCc2cccs2)C(=O)COc2ccccc2)cc1 [Example 165]
10 μM
  Residual activity % of the NCBE at 10 μM: 56.8%

## Cc1ccc(-c2ccc(CN(Cc3ccccc3Cl)C(=O)Cc3cccs3)cc2)c(S(=O)(=O)NC#N)c1 [Example 516]
[2]
  Residual activity % of the NCBE at 10 μM: 98.7%

## N#CNS(=O)(=O)c1ccccc1-c1ccc(CN(Cc2ccc(Cl)cc2Cl)C(=O)Cc2cccs2)cc1 [Example 270]
10 μM
  Residual activity % of the NCBE at 10 μM: 33.9%

## CN(Cc1ccc(-c2ccccc2S(=O)(=O)NC#N)cc1)C(=O)Cc1ccsc1 [Example 230]
10 μM
  Residual activity % of the NCBE at 10 μM: 68.6%

## N#CNS(=O)(=O)c1ccccc1-c1ccc(CN(CC2CCCO2)C(=O)CC2CCCC2)cc1 (stereo not shown) [Example 368]
[1]
  Residual activity % of the NCBE at 10 μM: 51.0%

## Cc1ccc(-c2ccc(CN(Cc3ccccc3)C(=O)CC3CCCCC3)cc2)c(S(=O)(=O)NC#N)c1 [Example 545]
[2]
  Residual activity % of the NCBE at 10 μM: 70.1%

## CN(C)c1ccc(CN(Cc2ccc(-c3ccccc3S(=O)(=O)NC#N)cc2)C(=O)Cc2cccs2)cc1 [Example 140]
10 μM
  Residual activity % of the NCBE at 10 μM: 54.2%

## N#CNS(=O)(=O)c1ccccc1-c1ccc(CN(Cc2cccs2)C(=O)Cc2cccs2)cc1 [Example 250]
10 μM
  Residual activity % of the NCBE at 10 μM: 41.1%

## N#CNS(=O)(=O)c1ccccc1-c1ccc(CN(Cc2nc3ccccc3[nH]2)C(=O)Cc2ccsc2)cc1 [Example 232]
10 μM
  Residual activity % of the NCBE at 10 μM: 62.6%

## COc1ccccc1C(=O)N(Cc1ccc(-c2ccccc2S(=O)(=O)NC#N)cc1)C1CCCc2ccccc21 (stereo not shown) [Example 335]
10 μM
  Residual activity % of the NCBE at 10 μM: 79.6%

## N#CNS(=O)(=O)c1ccccc1-c1ccc(CN(Cc2ccccn2)C(=O)CCCCc2cccs2)cc1 [Example 220]
10 μM
  Residual activity % of the NCBE at 10 μM: 73.2%

## CC(C(=O)N(Cc1ccc(-c2ccccc2S(=O)(=O)NC#N)cc1)CC1(c2ccccc2)CCCC1)c1cccs1 (stereo not shown) [Example 393]
[1]
  Residual activity % of the NCBE at 10 μM: 16.7%

## COc1ccc(CCN(Cc2ccc(-c3ccccc3S(=O)(=O)NC#N)cc2)C(=O)Cc2ccccc2)cc1 [Example 130]
10 μM
  Residual activity % of the NCBE at 10 μM: 77.8%

## N#CNS(=O)(=O)c1ccccc1-c1ccc(CN(C(=O)Cc2cccs2)C2CCCCC2)cc1 [Example 30]
10 μM
  Residual activity % of the NCBE at 10 μM: 95.2%

## COc1cccc(CN(Cc2ccc(-c3ccccc3S(=O)(=O)NC#N)cc2)C(=O)c2cccs2)c1 [Example 86]
10 μM
  Residual activity % of the NCBE at 10 μM: 57.0%

## CCN(Cc1ccc(-c2ccccc2S(=O)(=O)NC#N)cc1)C(=O)Cc1csc2ccccc12 [Example 215]
10 μM
  Residual activity % of the NCBE at 10 μM: 65.7%

## N#CNS(=O)(=O)c1ccccc1-c1ccc(CN(C(=O)C(=O)c2cccs2)C2CC2)cc1 [Example 197]
10 μM
  Residual activity % of the NCBE at 10 μM: 79.9%

## N#CNS(=O)(=O)c1ccccc1-c1ccc(CN(CC2CCCCC2)C(=O)C(=O)c2ccco2)cc1 [Example 258]
10 μM
  Residual activity % of the NCBE at 10 μM: 95.8%

## N#CNS(=O)(=O)c1ccccc1-c1ccc(CN(Cc2ccc(Cl)c(Cl)c2)C(=O)C(=O)c2ccco2)cc1 [Example 263]
10 μM
  Residual activity % of the NCBE at 10 μM: 54.0%

## COc1ccc(CCN(Cc2ccc(-c3ccccc3S(=O)(=O)NC#N)cc2)C(=O)c2cccs2)cc1 [Example 90]
10 μM
  Residual activity % of the NCBE at 10 μM: 84.2%
